From patent US5723625A, “Process for the production of specific isomer mixtures from oxindole alkaloids” (Immodal Pharmaka Gesellschaft m.b.H, priority 1994, dated 1998)

Legend:
Type in all cases: physicochemical
[1] = Effect of temperature and solvent on the equilibrium composition of the mitraphylline isomers
Source text: The use of solvents with different polarity gave different equilibria, while other conditions were identical.

physchem = settings: 1-octanol/water
Source text: (§1) Protonation of the alkaloid hinders partition into the solvent, but the dependence of the distribution coefficient on pH is different for each isomer due to their different basicity. When the isomerization takes place in such a two-phase system, the equilibrium obtained in the organic phase is different from that in the aqueous phase. As an example, the coefficients of distribution Ko/w of mitraphylline and isomitraphylline between 1-octanol and water at three pH values and the corresponding equilibria are given in table 6 (FIG.11). |Coefficients of distribution between 1-octanol and water KO/W for |mitraphylline and isomitraphylline and the resulting equilibria as a |function of pH at 25° C. (% per weight).

[2] = Equilibrium of mitraphylline isomers in the two-phase system 1-octanol/water; settings: for resulting equilibrium (water): aqueous phase; for resulting equilibrium (octanol): octanol phase
Source text: as §1

[3] = Effect of temperature and solvent on the equilibrium composition of the pteropodine isomers
Experimental: | Effect of temperature and solvent on the equilibrium composition | of the pteropodine isomers (temperature from 25 to | 50° C., % per weight) The use of solvents with different polarity gave different equilibria, while other conditions were identical.

[4] = Rate of isomerization of pteropodine in solvents and solvent mixtures; settings: 50° C.; for rate coefficient of isomerization k: k = k12 + k13 + k14 from initial rate
Experimental: It is known from the literature that oxindole alkaloids undergo isomerization in polar solvents. Therefore hexafluoropropan-2-ol as a highly polar solvent was examined for its suitability as a medium for isomerization. A solution of pteropodine in hexafluoropropan-2-ol with a concentration of 18 mg/l was allowed to rest for 8 days at 20° C. Continually, samples were taken and analyzed. […] Pyridine has been reported to be a suitable solvent for the isomerization, although its polarity is very low. Our results confirmed this, but only when at least small portions of water were present. […] Important causes of solvent polarity are the dielectricity constant and the ability to form hydrogen bonds. The correlation of dielectricity and rate of reaction was investigated (table 1). | Correlation of the rate coefficient of isomerization of pteropodine and |dielectricity constant ε in pure solvents at 50° C.^a | ^a The rate coefficient k was determined from the initial rate of | isomerization of pteropodine and, therefore, is a composite coefficient k | = k12 + k13 + k14 and has the dimension [h^-1 ]. The | coefficient k12 describes the transformation of pteropodine to | isopteropodine, k13 to speciophylline and k14 to uncarine F, | respectively. […] But it was noticed that solvents with the ability to form hydrogen bonds, like formamide, water, glycerol or methanol, effect faster isomerization than solvents without this ability. […] Consequently, mixtures of solvents were produced from one part with a high dielectricity constant and another part with the ability to form hydrogen bonds as a proton donor. Mixtures of one part formamide and one part alcohol turned out to be suitable reaction media. Water is the only solvent which combines a high dielectricity constant with the ability to form hydrogen bonds to an extent which allows satisfactory reaction rates. However, oxindole alkaloids are practically insoluble in water. Thus, it is obvious to use suitable co-solvents.

[5] = Isomerization of pteropodine in hexafluoropropan-2-ol; settings: 18 mg/l, 8 days at 20° C.
Experimental: It is known from the literature that oxindole alkaloids undergo isomerization in polar solvents. Therefore hexafluoropropan-2-ol as a highly polar solvent was examined for its suitability as a medium for isomerization. A solution of pteropodine in hexafluoropropan-2-ol with a concentration of 18 mg/l was allowed to rest for 8 days at 20° C. Continually, samples were taken and analyzed. […] Pyridine has been reported to be a suitable solvent for the isomerization, although its polarity is very low. Our results confirmed this, but only when at least small portions of water were present. […] Important causes of solvent polarity are the dielectricity constant and the ability to form hydrogen bonds. The correlation of dielectricity and rate of reaction was investigated (table 1).

[6] = Effect of pH on equilibrium and rate of isomerization; settings: for dependence of isomer equilibrium mixture on pH: water-methanol 9:1, c=30 mg/l
Source text: It is known from the literature (J. -L. Pousset, J. Poisson and M. Shamma, Bull.Soc.Chim. (1967), 2766) that oxindole alkaloids isomerize via a zwitterionic intermediate which is formed at the β-amino carboxyl system. There a double bond is formed between the amino nitrogen and the β-carbon, the bond between α and β-carbon is opened, and the spiro centre at the co-carbon becomes free for inversion (FIG. 2). […] The pH of a mixture of 9 parts of water and 1 part of methanol was adjusted to values from 2 to 9 by addition of phosphoric acid or sodium hydroxide, respectively. Pteropodine (c=30 mg/l) was isomerized in these solvents until the equilibrium was reached. […] The dependence of the pteropodine equilibrium on pH in pure water was investigated, too (FIG. 3b). […] (FIG. 4).

[7] = Effect of temperature on the rate of isomerization of pteropodine; settings: water, c=20 mg/l, 50 hours
Experimental: The effect of temperature on the rate of reaction was investigated. Pteropodine was dissolved in water (c=20 mg/l) and isomerized at various temperatures for 50 hours. The reactions were monitored (FIG. 9). An increase of temperature by 12° C. accelerated the reaction by a factor of 5.

Which results are given for `COC(=O)C1=COC(C)C2CN3CCC4(C(=O)Nc5ccccc54)C3CC12` (stereo not drawn) [Isomitraphylline, isomitraphylline]?
equilibrium composition ([1]; 25° C., methanol): 77.5 % per weight; equilibrium composition ([1]; 25° C., water): 65.6 % per weight; equilibrium composition ([1]; 37° C., methanol): 75.0 % per weight; equilibrium composition ([1]; 37° C., water): 67.5 % per weight; equilibrium composition ([1]; 50° C., methanol): 73.7 % per weight; equilibrium composition ([1]; 50° C., water): 68.0 % per weight; log KO/W (physchem; pH 3): 0.43; log KO/W (physchem; pH 5): 2.3; log KO/W (physchem; pH 7): 2.8; resulting equilibrium (water) ([2]; pH 3, 25° C.): 11.9 % per weight; resulting equilibrium (water) ([2]; pH 5, 25° C.): 0.5 % per weight; resulting equilibrium (water) ([2]; pH 7, 25° C.): 0.08 % per weight; resulting equilibrium (octanol) ([2]; pH 3, 25° C.): 32.0 % per weight; resulting equilibrium (octanol) ([2]; pH 5, 25° C.): 93.9 % per weight; resulting equilibrium (octanol) ([2]; pH 7, 25° C.): 78.8 % per weight

What does the source list for `COC(=O)C1=CO[C@@H](C)[C@@H]2CN3CC[C@@]4(C(=O)Nc5ccccc54)[C@@H]3C[C@H]12` [Isopteropodine, isopteropodine]?
equilibrium composition ([3]; 25° C., methanol): 75.4 % per weight; equilibrium composition ([3]; 25° C., water): 60.9 % per weight; equilibrium composition ([3]; 37° C., methanol): 75.5 % per weight; equilibrium composition ([3]; 37° C., water): 59.6 % per weight; equilibrium composition ([3]; 50° C., methanol): 73.5 % per weight; equilibrium composition ([3]; 50° C., water): 59.4 % per weight

Which results are given for `COC(=O)C1=COC(C)C2CN3CCC4(C(=O)Nc5ccccc54)C3CC12` (stereo not drawn) [Mitraphylline, mitraphylline]?
equilibrium composition ([1]; 25° C., methanol): 22.5 % per weight; equilibrium composition ([1]; 25° C., water): 34.4 % per weight; equilibrium composition ([1]; 37° C., methanol): 25.0 % per weight; equilibrium composition ([1]; 37° C., water): 32.5 % per weight; equilibrium composition ([1]; 50° C., methanol): 26.3 % per weight; equilibrium composition ([1]; 50° C., water): 32.0 % per weight; log KO/W (physchem; pH 3): -0.24; log KO/W (physchem; pH 5): 0.67; logD (physchem; pH 7, log KO/W): 2.5; resulting equilibrium (water) ([2]; pH 3, 25° C.): 35.6 % per weight; resulting equilibrium (water) ([2]; pH 5, 25° C.): 1.0 % per weight; resulting equilibrium (water) ([2]; pH 7, 25° C.): 0.12 % per weight; resulting equilibrium (octanol) ([2]; pH 3, 25° C.): 20.5 % per weight; resulting equilibrium (octanol) ([2]; pH 5, 25° C.): 4.6 % per weight; resulting equilibrium (octanol) ([2]; pH 7, 25° C.): 21.0 % per weight

With `COC(=O)C1=COC(C)C2CN3CCC4(C(=O)Nc5ccccc54)C3CC12` (stereo not drawn) [Pteropodine, pteropodine] as the molecule, how does the “rate coefficient of isomerization k” value ([4]; dimethyl sulfoxide) read?
The value was 0.00007 h⁻¹.

What about the “rate coefficient of isomerization k” value ([4]; dioxane) of the same molecule?
Its value is 0.0000004 h⁻¹.

And the “rate coefficient of isomerization k” value ([4]; formamide)?
The value was 0.005 h⁻¹.

What about the “rate of isomerization k” value ([4]; formamide-hexafluorpropan-2-ol (1:1)) of the same molecule?
Its value is 0.0037 h⁻¹.

And the “rate of isomerization k” value ([4]; formamide-methanol (1:1))?
The value was 0.0050 h⁻¹.

And the “rate coefficient of isomerization k” value ([4]; glycerol)?
Its value is 0.0072 h⁻¹.

What about the “rate coefficient of isomerization k” value ([4]; methanol) of the same molecule?
Its value is 0.0020 h⁻¹.

And the “rate of isomerization k” value ([4]; methanol-dimethyl sulfoxide (1:1))?
Its value is 0.0018 h⁻¹.

What about the “rate of isomerization k” value ([4]; methanol-dioxane (1:1)) of the same molecule?
The value was 0.0024 h⁻¹.

And the “rate coefficient of isomerization k” value ([4]; pyridine)?
Its value is 0.00002 h⁻¹.

And the “rate coefficient of isomerization k” value ([4]; water)?
Its value is 1.11 h⁻¹.

And the “rate of isomerization k” value ([4]; water-acetonitrile (1:1))?
Its value is 0.042 h⁻¹.

What about the “rate of isomerization k” value ([4]; water-dioxane (1:1)) of the same molecule?
Its value is 0.0012 h⁻¹.

And the “rate of isomerization k” value ([4]; water-formamide (1:1))?
The value was 0.067 h⁻¹.

What about the “rate of isomerization k” value ([4]; water-methanol (1:1)) of the same molecule?
Its value is 0.043 h⁻¹.

What about the “rate of isomerization k” value ([4]; water-pyridine (1:1)) of the same molecule?
Its value is 0.002 h⁻¹.

And the isomerization [5]?
Its isomerization is “No isomerization was observed”.

And the “dependence of isomer equilibrium mixture on pH” value ([6]; acidic solutions)?
The value was “depended characteristically on the pH value”.

And the “dependence of isomer equilibrium mixture on pH” value ([6]; neutral or alkaline solutions)?
Its value is “independent of pH in neutral or alkaline solutions”.

What about the “rate of reaction with increasing proton concentration” value ([6]; pH 2 to 9) of the same molecule?
The value was “decreased with increasing proton concentration”.

What about the equilibrium composition ([3]; 25° C., methanol) of the same molecule?
Its equilibrium composition is 22.9 % per weight.

And the equilibrium composition ([3]; 25° C., water)?
The equilibrium composition was 29.6 % per weight.

And the equilibrium composition ([3]; 37° C., methanol)?
The equilibrium composition was 22.6 % per weight.

And the equilibrium composition ([3]; 37° C., water)?
Its equilibrium composition is 29.8 % per weight.

What about the equilibrium composition ([3]; 50° C., methanol) of the same molecule?
Its equilibrium composition is 23.5 % per weight.

What about the equilibrium composition ([3]; 50° C., water) of the same molecule?
Its equilibrium composition is 29.6 % per weight.

And the “acceleration of the reaction by an increase of temperature by 12° C. (factor)” value [7]?
The value was 5.

Which equilibrium composition ([3]; 25° C., methanol) does the source give for `COC(=O)C1=COC(C)C2CN3CCC4(C(=O)Nc5ccccc54)C3CC12` (stereo not drawn) [Speciophylline, speciophylline] here?
The equilibrium composition was 0.4 % per weight.

What about the equilibrium composition ([3]; 25° C., water) of the same molecule?
Its equilibrium composition is 4.3 % per weight.

What about the equilibrium composition ([3]; 37° C., methanol) of the same molecule?
Its equilibrium composition is 0.5 % per weight.

What about the equilibrium composition ([3]; 37° C., water) of the same molecule?
The equilibrium composition was 4.5 % per weight.

What about the equilibrium composition ([3]; 50° C., methanol) of the same molecule?
The equilibrium composition was 1.0 % per weight.

And the equilibrium composition ([3]; 50° C., water)?
The equilibrium composition was 4.6 % per weight.

For `COC(=O)C1=COC(C)C2CN3CCC4(C(=O)Nc5ccccc54)C3CC12` (stereo not drawn) [Uncarine F, uncarine F], which equilibrium composition ([3]; 25° C., methanol) is on record?
Its equilibrium composition is 1.3 % per weight.

And the equilibrium composition ([3]; 25° C., water)?
The equilibrium composition was 5.2 % per weight.

What about the equilibrium composition ([3]; 37° C., methanol) of the same molecule?
The equilibrium composition was 1.4 % per weight.

And the equilibrium composition ([3]; 37° C., water)?
The equilibrium composition was 6.1 % per weight.

What about the equilibrium composition ([3]; 50° C., methanol) of the same molecule?
The equilibrium composition was 2.0 % per weight.

What about the equilibrium composition ([3]; 50° C., water) of the same molecule?
The equilibrium composition was 6.4 % per weight.
